Laboratory results: ChEMBL document CHEMBL4052616, “Isoniazid derivatives and their anti-tubercular activity” (Eur J Med Chem, 2017)
In brackets after ≈: the same amount, converted by molar mass.

Test system: Mycobacterium tuberculosis
Experiment: Antimycobacterial activity against human resistant Mycobacterium tuberculosis measured after six weeks
Format: functional

Row | Compound | MIC [µg/mL]
1 | C=CCN1C(=O)/C(=N\NC(=O)c2ccncc2)c2ccccc21 | 2.7 to 3.5 (≈ 8.81 to 11.4 µM)
2 | O=C(N/N=C1\C(=O)N(Cc2ccccc2)c2ccccc21)c1ccncc1 | 2.7 to 3.5 (≈ 7.58 to 9.82 µM)
